The target in one data set is T1, mKCNQ2 channels (Mus musculus, UniProt Q9Z351).
T1 construct: expressed in transfected cells
The data set can be described thus: Whole-cell patch-clamp, HEK 293 stable cell line expressing mKCNQ2 channels. It counts as cell-based. Particulars: HEK 293 mKCNQ2, Hill fit; for EC50: @ −40 mV; for Emax: HEK293, read-out: Imax (%). As to the method: Whole-cell patch-clamp recordings were made from an HEK 293 stable cell line expressing mKCNQ2 channels, maintained in culture for 1-2 days. Patch pipettes had initial resistances of 2.5-4 MΩ. Currents were recorded with an EPC-9 amplifier (HEKA, Lambrecht, Germany) controlled with software (Pulse, HEKA) run on a standard lab PC. Series resistance compensation was used during current recording, and set at 80%. The series resistance (R) and cell capacitance (C) were determined electronically by subtracting the capacitive currents at the onset and offset of a 5 mV voltage step. The cancellation of whole-cell capacitance transients was virtually complete in all cells. Analog current signals were low-pass filtered at 2.9 kHz using a four-pole Bessel filter −3 dB) and stored on a local network server computer at a sampling rate of […]. All recordings were performed at room temperature (20-22° C.). The pipette solution contained (mM): KCl, 150; CaCl2, 2.5; EGTA, 5; MgCl2, 1; HEPES, 10; pH to 7.3 with KOH, and Osmolality of 290-300 mOsm. The extracellular solution contained (mM): NaCl, 140; KCl, 2.5; CaCl2, 2.5; MgCl2, 1; glucose, 10; HEPES, 10; pH to 7.3 with NaOH, and Osmolality of 305-310 mOsm
Concentration response data were generated by measuring the difference in the steady-state amplitude of current in the presence of compound at the end of a 600 ms voltage-clamp step from a holding potential of −80 mV. The concentration-response data were fitted with Hill-type equations: […]
where I is the steady-state current at a given concentration of agonist [A]; and Imax, EC50 and nH are parameters estimated from the curve fit. In some cases the concentration-response data were fitted with equations consisting of the sum of two Hill-type components. Current-voltage (I/V) relationships for agonist-evoked currents were obtained by performing 600 ms voltage steps (−110 mV to +40 mV) in the absence and presence of agonist.

A word on the EC50: it is the concentration giving half of the maximal effect. By melting point is commonly meant the temperature, or range, at which the solid turns liquid.

T1 sequence (Q9Z351 whole entry): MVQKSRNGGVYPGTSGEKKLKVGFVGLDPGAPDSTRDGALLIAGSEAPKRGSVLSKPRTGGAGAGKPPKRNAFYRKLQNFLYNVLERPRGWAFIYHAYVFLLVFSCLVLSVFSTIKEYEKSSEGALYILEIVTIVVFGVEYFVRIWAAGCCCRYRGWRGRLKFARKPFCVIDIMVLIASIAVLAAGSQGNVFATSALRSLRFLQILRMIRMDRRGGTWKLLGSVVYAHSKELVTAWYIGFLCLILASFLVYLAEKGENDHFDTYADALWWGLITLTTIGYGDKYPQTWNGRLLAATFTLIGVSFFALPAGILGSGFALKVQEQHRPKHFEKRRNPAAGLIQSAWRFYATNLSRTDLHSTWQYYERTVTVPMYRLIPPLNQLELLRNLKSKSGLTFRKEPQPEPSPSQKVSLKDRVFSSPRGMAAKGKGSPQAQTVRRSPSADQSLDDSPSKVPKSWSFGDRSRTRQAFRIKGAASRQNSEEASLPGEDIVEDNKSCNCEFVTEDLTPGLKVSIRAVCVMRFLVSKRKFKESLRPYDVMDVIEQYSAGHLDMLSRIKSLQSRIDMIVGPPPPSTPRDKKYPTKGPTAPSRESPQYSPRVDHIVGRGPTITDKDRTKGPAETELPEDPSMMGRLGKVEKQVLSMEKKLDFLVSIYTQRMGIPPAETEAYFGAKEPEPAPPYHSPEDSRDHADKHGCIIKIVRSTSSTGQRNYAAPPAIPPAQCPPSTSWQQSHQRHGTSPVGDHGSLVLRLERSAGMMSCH

The molecule `CC(NC(=O)/C=C/c1ccccc1F)c1ccc2c(c1)N(CC1CC1)CCO2` (single isomer, unassigned) [Example 215, 3-(2-fluoro-phenyl)-N-[1-(4-cyclopropylmethyl-3,4-dihydro-2H-benzo[1,4]oxazin-6-yl)ethyl]-acrylamide] displayed a half-maximal effective concentration (EC50) on mKCNQ2 channels of 5.4 µM. In the case of `C[C@H](NC(=O)/C=C/c1ccc(Cl)cc1F)c1cccc(N2CCOCC2)c1` [Example 97, (S)-3-(4-Chloro-2-fluoro-phen-yl)-N-[1-(3-morpho-lin-4-yl-phenyl)-eth-yl]-acrylamide], the EC50 on mKCNQ2 channels came to 2.9 µM. This EC50 lies about 1.9-fold lower than the previous one.

In the case of `CC(NC(=O)/C=C/c1ccccc1Cl)c1ccc2c(c1)OCO2` (racemic) [Example 46, (±)-N-(1-Benzo[1,3]-diox-ol-5-yl-ethyl)-3-(2-chlor-o-phenyl)-acrylamide], on mKCNQ2 channels, the EC50 came to 0.0006 µM and the Emax was found to be 260%. For `CCN1CCOc2ccc(C(C)NC(=O)/C=C/c3ccccc3F)cc21` (single isomer, unassigned) [Example 214, 3-(2-fluoro-phenyl)-N-[1-(4-ethyl-3,4-dihydro-2H-benzo[1,4]oxazin-6-yl)ethyl]-acrylamide] the same measures were 0.0009 µM and 260%.

For `CCN1CCCc2ccc(C(C)NC(=O)/C=C/c3cc(F)ccc3F)cc21` (racemic) [Example 242, (±)-3-(2,5-difluoro-phenyl)-N-[1-(1-ethyl-1,2,3,4-tetrahydro-quinolin-7-yl)ethyl]acrylamide], the melting point lay in the range of 50 to 53 °C. In addition, a half-maximal response on mKCNQ2 channels (EC50) required 1.4 µM. On to `CC(NC(=O)/C=C/c1ccc(F)cc1)c1ccc2c(c1)NCCC2` (racemic) [Example 235, (±)-3-(4-fluoro-phenyl)-N-[1-(1,2,3,4-tetrahydro-quinolin-7-yl)ethyl]-acrylamide], for which the melting point was 125 to 127 °C (dec.).

The molecule `CC(NC(=O)/C=C/c1cc(F)ccc1F)c1ccc2c(c1)N(C)CCC2` (racemic) [Example 237, (±)-3-(2,5-difluoro-phenyl)-N-[1-(1-methyl-1,2,3,4-tetrahydro-quinolin-7-yl)ethyl]acrylamide] came in with a melting point of 52 to 55 °C.

For `CC(NC(=O)/C=C/c1ccc(F)c(F)c1)c1ccc2c(c1)CCCN2` (stereo not drawn) [Example 250, 3-(3,4-difluoro-phenyl)-N-[1-(1,2,3,4-tetrahydro-quinolin-6-yl)-ethyl]acrylamide], the melting point was 156 °C (dec.). On the same count and under the same terms, the result for `CC(NC(=O)/C=C/c1cc(F)ccc1F)c1ccc2c(c1)CCCN2` (stereo not drawn) [Example 252, 3-(2,5-difluoro-phenyl)-N-[1-(1,2,3,4-tetrahydro-quinolin-6-yl)-ethyl]acrylamide] reads 55 to 58 °C. Turning to `CC(NC(=O)/C=C/c1cc(F)cc(F)c1)c1ccc2c(c1)CCCN2` (stereo not drawn) [Example 248, 3-(3,5-difluoro-phenyl)-N-[1-(1,2,3,4-tetrahydro-quinolin-6-yl)-ethyl]acrylamide], the melting point is 180 °C (dec.). For the same molecule, at mKCNQ2 channels, the EC50 turned out to be 5 µM and the Emax came to 290%. As to `CC(=O)N1CCCc2ccc(C(C)NC(=O)/C=C/c3ccccc3)cc21` (racemic) [Example 243, (±)-N-[1-(1-acetyl-1,2,3,4-tetrahydro-quinolin-7-yl)-ethyl]-3-phenyl-acrylamide], the melting point was 65 to 68 °C. For the molecule `CC(NC(=O)/C=C/c1cc(F)ccc1F)c1ccc2c(c1)OCO2` (racemic) [Example 38, (±)-N-(1-Benzo[1,3]-diox-ol-5-yl-ethyl)-3-(2,5-di-fluoro-phenyl)-acrylamide], on mKCNQ2 channels, the EC50 came out at 4.2 µM and the Emax worked out at 550%.

The values above are taken from US6831080B2, “Cinnamide derivatives as KCNQ potassium channel modulators” (Bristol-Myers Squibb Company, priority 2001, dated 2004).
